{"source": "paper PMC7982615", "about": "“Phase 1 study of telisotuzumab vedotin in Japanese patients with advanced solid tumors” (Cancer Medicine, 2021)", "key": {"advanced solid tumors [1]": {"test_system": "advanced solid tumors", "settings": "cited from earlier work"}, "advanced solid tumors [2]": {"test_system": "advanced solid tumors", "assay": "Preliminary antitumor activity, RECIST version 1.1", "type": "in vivo, human", "settings": "for PFS estimate at 6 months / Median PFS / Median duration of overall response / PFS estimate at 9 months: [95% CI]; for Median PFS: Kaplan–Meier", "text": "Evaluation of tumor response to determine the objective response rate (ORR), progression‐free survival (PFS), and duration of response was based on RECIST version 1.1 criteria.\nAll data were summarized and tabulated by dose cohort. Categoric data were summarized in terms of frequency counts and percentages. Continuous data were summarized using descriptive statistics, including number of observations, mean, standard deviation, median, minimum, and maximum. No formal statistical analysis was performed for efficacy variables, which were all exploratory in nature. ORR was defined as the proportion of patients with a confirmed partial response (PR) or complete response (CR). Duration of response was defined as time from a patient's initial objective response to the first date of disease progression (PD) or death. The overall disease control rate was defined as the proportion of patients with CR, PR, or stable disease (SD). […] PFS was estimated using the Kaplan–Meier method. Efficacy analyses are presented with two‐sided exact 95% binomial CI."}, "[3]": {"settings": "total, N = 9, listed as telisotuzumab vedotin"}, "[4]": {"settings": "total, N = 9, listed as teliso-v"}}, "note": "Like-named read-outs stand apart in the source and are kept apart here."}
{"substance": "Teliso‐v: antibody‐drug conjugate: anti–c‐Met humanized monoclonal antibody ABT‐700 coupled to monomethyl auristatin E through a valine‐citrulline linker, drug:antibody ratio approximately three", "values": [{"measurement": "Tolerability", "setting": "advanced solid tumors [1]; 2.7 mg/kg Q3 W", "result": "well tolerated"}, {"measurement": "Patients with PR", "setting": "advanced solid tumors [1]; c‐Met‐positive NSCLC", "result": "three of 14"}, {"measurement": "Recommended phase 2 dose (RP2D)", "setting": "advanced solid tumors [1]; every 3 weeks, preceding phase 1 study outside of Japan", "result": 2.7, "unit": "mg/kg"}, {"measurement": "Frequency of corneal epithelium disorder", "setting": "advanced solid tumors [1]; non‐Japanese patients, nine of 116, teliso‐v monotherapy, ref data on file", "result": 7.8, "unit": "%"}, {"measurement": "Complete response", "setting": "advanced solid tumors [2]; 2.4 mg/kg Q3W, n = 3", "result": "0 n (%)"}, {"measurement": "Disease control rate", "setting": "advanced solid tumors [2]; 2.4 mg/kg Q3W, n = 3", "result": "3 (100) [NA] n (%) [95% CI]"}, {"measurement": "Objective response rate", "setting": "advanced solid tumors [2]; 2.4 mg/kg Q3W, n = 3", "result": "0 n (%)"}, {"measurement": "Partial response", "setting": "advanced solid tumors [2]; 2.4 mg/kg Q3W, n = 3", "result": "0 n (%)"}, {"measurement": "Progressive disease", "setting": "advanced solid tumors [2]; 2.4 mg/kg Q3W, n = 3", "result": "0 n (%)"}, {"measurement": "Stable disease", "setting": "advanced solid tumors [2]; 2.4 mg/kg Q3W, n = 3", "result": "3 (100) n (%)"}, {"measurement": "PFS estimate at 6 months", "setting": "advanced solid tumors [2]; 2.4 mg/kg Q3W, n = 3", "result": "33.3 [0.9–77.4] %"}, {"measurement": "Median PFS", "setting": "advanced solid tumors [2]; 2.4 mg/kg Q3W, n = 3", "result": "4.1 [2.8–7.1] months"}, {"measurement": "Complete response", "setting": "advanced solid tumors [2]; 2.7 mg/kg Q3W, n = 6", "result": "0 n (%)"}, {"measurement": "Objective response rate", "setting": "advanced solid tumors [2]; 2.7 mg/kg Q3W, n = 6", "result": "2 (33) n (%)"}, {"measurement": "Partial response", "setting": "advanced solid tumors [2]; 2.7 mg/kg Q3W, n = 6", "result": "2 (33) n (%)"}, {"measurement": "Progressive disease", "setting": "advanced solid tumors [2]; 2.7 mg/kg Q3W, n = 6", "result": "1 (17) n (%)"}, {"measurement": "Stable disease", "setting": "advanced solid tumors [2]; 2.7 mg/kg Q3W, n = 6", "result": "3 (50) n (%)"}, {"measurement": "Median duration of overall response", "setting": "advanced solid tumors [2]; 2.7 mg/kg Q3W, n = 6", "result": "8.2 [7.2–9.1] months"}, {"measurement": "PFS estimate at 6 months", "setting": "advanced solid tumors [2]; 2.7 mg/kg Q3W, n = 6", "result": "83.3 [27.3–97.5] %"}, {"measurement": "PFS estimate at 9 months", "setting": "advanced solid tumors [2]; 2.7 mg/kg Q3W, n = 6", "result": "83.3 [27.3–97.5] %"}, {"measurement": "Median PFS", "setting": "advanced solid tumors [2]; 2.7 mg/kg Q3W, n = 6", "result": "10.4 [1.2–12.0] months"}, {"measurement": "Patients with PD", "setting": "advanced solid tumors [2]; N = 9", "result": "one"}, {"measurement": "Patients with SD", "setting": "advanced solid tumors [2]; N = 9", "result": "six"}, {"measurement": "Patients with PR", "setting": "advanced solid tumors [2]; N = 9, both at 2.7‐mg/kg (urothelial, ovarian cancer)", "result": "Two"}, {"measurement": "Reduction of sum of the tumor size", "setting": "advanced solid tumors [2]; single patient, 27 weeks after teliso-v initiation", "result": 73, "unit": "%"}, {"measurement": "Sum of the tumor size", "setting": "advanced solid tumors [2]; single patient, lung metastasis, 27 weeks after teliso-v initiation, baseline 64.4 mm", "result": 17.3, "unit": "mm"}, {"measurement": "Patients with reduction in tumor size from baseline", "setting": "advanced solid tumors [2]; thymic cancer, NSCLC, ovarian cancer, urothelial cancer", "result": "Four"}, {"measurement": "Complete response", "setting": "advanced solid tumors [2]; total, N = 9", "result": "0 n (%)"}, {"measurement": "Objective response rate", "setting": "advanced solid tumors [2]; total, N = 9", "result": "2 (22) n (%)"}, {"measurement": "Overall disease control rate", "setting": "advanced solid tumors [2]; total, N = 9", "result": 89, "unit": "%"}, {"measurement": "PFS estimate at 6 months", "setting": "advanced solid tumors [2]; total, N = 9", "result": "64.0 [23.8–86.6] %"}, {"measurement": "PFS estimate at 9 months", "setting": "advanced solid tumors [2]; total, N = 9", "result": "48.0 [12.3–76.9] %"}, {"measurement": "Median PFS", "setting": "advanced solid tumors [2]; total, N = 9", "result": "7.1 [1.2–10.4] months"}, {"measurement": "Median PFS", "setting": "advanced solid tumors [2]; [3]", "result": 7.1, "unit": "months"}, {"measurement": "Median duration of overall response", "setting": "advanced solid tumors [2]; [4]", "result": "8.2 [7.2–9.1] months"}, {"measurement": "Median duration of overall response", "setting": "advanced solid tumors [2]; total, N = 9, listed as teliso‐v", "result": 8.2, "unit": "months"}, {"measurement": "Partial response", "setting": "advanced solid tumors [2]; [4]", "result": "2 (22) n (%)"}, {"measurement": "Progressive disease", "setting": "advanced solid tumors [2]; [4]", "result": "1 (11) n (%)"}, {"measurement": "Stable disease", "setting": "advanced solid tumors [2]; [4]", "result": "6 (67) n (%)"}, {"measurement": "Partial response", "setting": "advanced solid tumors [2]; [3]", "result": 22, "unit": "%"}, {"measurement": "Progressive disease", "setting": "advanced solid tumors [2]; [3]", "result": 11, "unit": "%"}, {"measurement": "Stable disease", "setting": "advanced solid tumors [2]; [3]", "result": 67, "unit": "%"}]}
